Measurements published in BindingDB's records for doi:10.1021/jm00101a006 (University of Illinois, 1992).

Assays:
[1] = target: T1, Urokinase-type plasminogen activator (Homo sapiens, UniProt P00749); assay: Compound was tested for the rate constant of deacylation against Urokinase-type plasminogen activator
[2] = target: T1, Urokinase-type plasminogen activator; assay: Compound was tested for the rate constant of deacylation against the enzyme Urokinase-type plasminogen activator; conditions: read-out: koff (s-1)
Serine protease 1 = target: T2, Serine protease 1 (Bos taurus, UniProt P00760); assay: Compound was tested for the rate constant of deacylation against the enzyme trypsin
T2 sequence (P00760 whole entry): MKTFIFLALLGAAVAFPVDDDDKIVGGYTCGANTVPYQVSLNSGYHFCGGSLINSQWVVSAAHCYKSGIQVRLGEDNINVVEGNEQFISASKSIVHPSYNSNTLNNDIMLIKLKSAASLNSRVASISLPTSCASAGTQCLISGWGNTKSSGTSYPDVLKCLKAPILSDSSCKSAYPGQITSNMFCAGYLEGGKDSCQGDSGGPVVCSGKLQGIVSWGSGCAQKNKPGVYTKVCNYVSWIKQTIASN

[3] = target: T1, Urokinase-type plasminogen activator; assay: Compound was tested for the rate constant of deacylation against Urokinase-type plasminogen activator

SMILES | koff [1] [s⁻¹] | koff [2] [s⁻¹] | koff (Serine protease 1) [s⁻¹] | koff [3] [s⁻¹]
NC(N)=Nc1ccc(C2C/C(=C/I)OC(=O)C2NC(=O)c2ccccc2)cc1 (stereo not given) | 1.3e-05 | 1.3e-05 | – | –
C=C1CC(c2ccc(N=C(N)N)cc2)C(NC(=O)c2ccccc2)C(=O)O1 (stereo not given) | – | – | 0.00025 | 3.3e-05
NC(N)=Nc1ccc(C2CC(=O)O/C(=C\I)C2)cc1 (stereo not given) | – | – | 0.00033 | –
